According to patent US20030158254A1, “Engineering absorption of therapeutic compounds via colonic transporters” (XenoPort, Inc., priority 2002, published 2003):

Experiments:
hSMVT = molecular target: T1, hSMVT (Homo sapiens, UniProt Q9Y289); assay: Radiolabeled competition assay in SMVT-expressing CHO cells; format: cell-based; settings: radiolabeled competition assay in SMVT-expressing CHO cells; read-out: IC50
T1 sequence (Q9Y289 1-635): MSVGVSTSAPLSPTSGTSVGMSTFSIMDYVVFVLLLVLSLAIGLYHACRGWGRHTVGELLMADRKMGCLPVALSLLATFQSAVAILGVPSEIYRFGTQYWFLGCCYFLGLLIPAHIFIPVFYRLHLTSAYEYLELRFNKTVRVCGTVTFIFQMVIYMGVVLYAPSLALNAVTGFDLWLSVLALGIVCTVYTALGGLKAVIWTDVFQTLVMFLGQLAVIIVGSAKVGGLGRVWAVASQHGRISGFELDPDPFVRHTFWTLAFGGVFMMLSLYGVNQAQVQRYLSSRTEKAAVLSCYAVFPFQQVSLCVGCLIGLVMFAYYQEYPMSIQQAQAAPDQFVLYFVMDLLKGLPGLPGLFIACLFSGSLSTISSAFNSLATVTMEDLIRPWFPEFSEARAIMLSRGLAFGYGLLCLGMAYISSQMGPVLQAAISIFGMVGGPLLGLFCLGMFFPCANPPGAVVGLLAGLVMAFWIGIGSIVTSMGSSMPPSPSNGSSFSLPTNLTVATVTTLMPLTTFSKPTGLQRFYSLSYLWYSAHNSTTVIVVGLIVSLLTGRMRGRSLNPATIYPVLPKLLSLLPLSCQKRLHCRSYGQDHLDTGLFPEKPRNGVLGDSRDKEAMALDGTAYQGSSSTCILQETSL
Source text: The complete open reading frame of human ATBO+(SLC6A14) and SMVT (SLC5A6) were amplified from human cDNA prepared from liver or intestine mRNA. […] Amplified PCR products were cloned into a modified version of the mammalian expression vector pcDNA3 (termed pMO) that was engineered to contain the 5′ and 3′ untranslated regions from the Xenopus beta-globin gene. All clones were completely sequenced and tested for function by transient transfection in HEK293 cells.
For cell uptake studies, stable CHOK1 clones were seeded into polylysine coated 96-well microtitre plates and grown for 2-3 days. Cells were incubated with experimental solutions (combinations of radiolabeled and unlabeled compounds) for 30 minutes at room temperature, washed four times, and lysed in scintillation solution. Accumulation of radiolabeled molecules was measured in a microtitre scintillation plate reader (Perkin Elmer). Inhibition constants (IC50s) were calculated using curve-fitting software (Prism).

[1] = Uptake into plasma of Compound V following oral and intracolonic administration; format: in vivo, rat; settings: FIG. 4
Experimental: Rats were obtained commercially and were pre-cannulated in the both the ascending colon and the jugular vein. Animals were conscious at the time of the experiment. All animals were fasted overnight and until 4 hours post-dosing. Prodrugs were administered as a solution (in water or polyethylene glycol 400) directly into the colon via the cannula at a dose equivalent to 25 mg of gabapentin per kg. Blood samples (0.5 mL) were obtained from the jugular cannula at intervals over 8 hours and were quenched immediately by addition of acetonitrile/methanol to prevent further conversion of the prodrug. Blood samples were analyzed as described in the attached sample analysis summary.
FIG. 4 compares uptake into the plasma of Compound V following oral and intracolonic administration. […] The levels from oral and colonic administration cross at about 7 hr.

## CC(C)(N)C(=O)NCC1(CC(=O)O)CCCCC1 [Compound V, a-aminoisobutyryl gabapentin]
hSMVT
  IC50: 320 µM
[1]; intracolonic versus oral
  Plasma peak after colonic dosing compared with oral: lower peak at a later time
[1]; oral versus intracolonic
  Time at which plasma levels from oral and colonic administration cross: about 7 hr
